Read-outs that look alike come from different tables or passages of the source. Where no end group is shown, it is not given here.
Assays:
[1] = tested on: human kidney cancer cell line (CAKI2); type: cell-based; details: human, 48 h
Description: The antitumor activity of each sample peptide synthesized in above-mentioned Test Example 1 was evaluated targeted in human-derived cultured tumor cells. More specifically, a human kidney cancer cell line (CAKI2) that is currently commercially available was used for the test tumor cells. CAKI2 cells were cultured and adjusted to cell count of about 5×10^3 cells per single well of 96-well plate. The amount of medium at this time was made to be 100 μL per well. Next, the 96-well plate was arranged in a CO2 incubator and incubated for about 1 day (21 hours to 24 hours) under conditions of 37° C. and 5% CO2. Subsequently, peptide-containing test media were respectively prepared for each concentration so that the concentration of each sample peptide targeted for evaluation was 12.5 μM and 25 μM followed by supplying to the wells in which the cells targeted for evaluation were cultured (namely, the wells following the above-mentioned incubation) so that the amount of media was 90 μL per well. The 96-well plate was then returned to CO2 incubator followed by incubating for 48 hours under conditions of 37° C. and 5% CO2. The number of wells (n) at each concentration in each peptide addition test group was set to 3. Thus, the values of the results indicated in the following table are the average values of the results respectively obtained for 3 test wells. Cell viability (%) was determined in the manner described below. Following completion of incubation for 48 hours as described above, the medium in each well was replaced with 100 μL of fresh medium not containing peptide followed by further adding a reagent for measuring cell proliferation in the form of “Cell Counting Kit-8” (Dojindo Laboratories) containing “water-soluble tetrazolium salt (WST-8)” as a coloring reagent at 10 μL per well. Subsequently, the 96-well plate was again returned to CO2 incubator and incubated for 1.5 hours to 2 hours under conditions of 37° C. and 5% CO2. Following completion of incubation, cell viability (%) was evaluated using a colorimetric method consisting of recovering the cell culture liquid containing the above-mentioned reagent together with measuring absorbance at wavelength of 450 nm based on reduction of tetrazolium salt (value corrected for absorbance at a wavelength of 650 nm: A450 to A650). More specifically, the cell viability (%) of each test cell line was calculated from the measured absorbance as a relative value based on cell viability of 100% for the measured value (measured absorbance) of the comparison test group that underwent incubation for 48 hours as described above in only medium not containing peptide. McCoy's 5A medium (Gibco) containing 2 mM L-glutamine, 3,000 mg/L of glucose, 100 units/mL of penicillin, 100 μg/mL of streptomycin and 10% fetal bovine serum (FBS).

tumor cells = experiment: Antitumor activity of the TM2-TAT peptide (data not shown); type: cell-based; details: detailed data not shown

Molecule	Cell Viability (%) ([1]; 12.5 μM)	Cell Viability (%) ([1]; 25 μM)	antitumor activity (tumor cells)
CC[C@H](C)[C@H](NC(=O)[C@H](CCCNC(=N)N)NC(=O)[C@H](CS)NC(=O)[C@H](Cc1ccc(O)cc1)NC(=O)[C@H](CC(C)C)NC(=O)[C@@H](NC(=O)[C@@H](NC(=O)[C@@H](NC(=O)[C@H](CO)NC(=O)[C@H](CC(C)C)NC(=O)[C@H](CC(C)C)NC(=O)[C@H](CC(C)C)NC(=O)[C@H](CC(C)C)NC(=O)[C@@H](NC(=O)[C@H](Cc1ccccc1)NC(=O)[C@@H](NC(=O)[C@@H](NC(=O)[C@@H](NC(=O)[C@H](CS)NC(=O)[C@H](Cc1ccccc1)NC(=O)[C@H](CC(C)C)NC(=O)[C@@H](NC(=O)[C@H](Cc1ccc(O)cc1)NC(=O)[C@H](Cc1c[nH]cn1)NC(=O)[C@H](CCCCN)NC(=O)[C@H](Cc1c[nH]cn1)NC(=O)[C@H](Cc1ccc(O)cc1)NC(=O)[C@@H](N)CC(C)C)[C@@H](C)CC)[C@@H](C)O)[C@@H](C)O)C(C)C)[C@@H](C)O)[C@@H](C)CC)C(C)C)[C@@H](C)CC)C(=O)N[C@@H](CCCCN)C(=O)N[C@@H](CCCCN)C(=O)N[C@@H](CCCNC(=N)N)C(=O)N[C@H](C(=O)N[C@@H](CC(C)C)C(=O)N[C@@H](CCCNC(=N)N)C(=O)N[C@@H](CCCCN)C(=O)N[C@@H](CC(N)=O)C(=O)N[C@@H](CC(=O)O)C(=O)N[C@@H](CCCNC(=N)N)C(=O)N[C@@H](CCCCN)C(=O)N[C@@H](CCCCN)C(=O)N[C@@H](CCCNC(=N)N)C(N)=O)[C@@H](C)O [Sample 5]	73.3	77.6	–
FLLISACWVISLILGGLPIMGWKKRTLRKNDRKKR-NH2 [Sample 4]	70.6	85.6	–
LFRAEYFLVLAVLNSGTNPIIKKRTLRKNDRKKR-NH2 [Sample 7]	98.9	66.3	–
SEQ ID NO: 33: synthetic peptide binding SEQ ID NO: 23 (TAT sequence of HIV) to the C-terminal side of SEQ ID NO: 2 (S1PR1 second TM region) (FIGNLALSDLLAGVAYTANLLLRKKRRQRRR)	–	–	demonstrated antitumor activity
VIIVLSVFIACWAPLFILLLLKKRTLRKNDRKKR-NH2 [Sample 6]	69.3	59.7	–
WFLREGSMFVALSASVFSLLAIKKRTLRKNDRKKR-NH2 [Sample 3]	68	45.8	–

— patent publication US11339203B2, “Antitumor peptide and use thereof” (TOAGOSEI CO., LTD., priority 2018, dated 2022)
